Each compound was assayed against T1, Human MTHFD2 (Homo sapiens, UniProt P13995) (assay: MTHFD2 Activity Assay (dehydrogenase activity, diaphorase/resazurin coupled fluorescence)). Details: inhibitory activity (IC50 and/or binding constant); 0.2 nM MTHFD2, 11 concentrations.
T1 construct: residues 36-350 in Uniport ID P13995; His6 (N); made in house; host or cells: E. coli
T1 sequence (P13995 36-350): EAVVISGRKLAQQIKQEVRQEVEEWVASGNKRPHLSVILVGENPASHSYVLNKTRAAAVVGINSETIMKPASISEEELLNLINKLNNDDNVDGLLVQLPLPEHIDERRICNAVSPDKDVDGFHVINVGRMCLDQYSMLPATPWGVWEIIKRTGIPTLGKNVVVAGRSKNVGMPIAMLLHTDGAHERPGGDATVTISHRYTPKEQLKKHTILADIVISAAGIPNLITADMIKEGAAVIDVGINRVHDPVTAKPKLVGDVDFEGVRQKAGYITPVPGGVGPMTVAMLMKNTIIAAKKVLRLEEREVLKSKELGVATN
Type: biochemical
Method in brief: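 Steps: compound + 0.2 nM enzyme, 15 min, pH 8.0 Hepes buffer; add 70 μM CH2-THF, 1 mM NAD+, 100 μM resazurin, diaphorase; 30 min; quench with EDTA; read fluorescence. Data normalized to DMSO (100%) and no-enzyme (0%) wells.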
With Cn1c(N[C@@H]2CC[C@H](C(=O)O)C2)nc2c1c(=O)n(Cc1ccc(Cl)c(Cl)c1)c(=O)n2C [Example 50, (1S,3R)-3-({1-[(3,4-dichlorophenyl)methyl]-3,7-dimethyl-2,6-dioxo-2,3,6,7-tetrahydro-1H-purin-8-yl}amino)cyclopentane-1-carboxylic acid] the IC50 was 0.01 to 1 µM.
With C[C@@H](CCO)Nc1nc2c(c(=O)n(Cc3ccc4sccc4c3)c(=O)n2C)n1C [Example 51, 1-(1-benzothiophen-5-ylmethyl)-8-{[(2S)-4-hydroxybutan-2-yl]amino}-3,7-dimethyl-2,3,6,7-tetrahydro-1H-purine-2,6-dione] the IC50 was 0.01 to 1 µM.
In the case of Cn1c(NCCCO)nc2c1c(=O)n(Cc1ccc3sccc3c1)c(=O)n2C [Example 52, 1-(1-benzothiophen-5-ylmethyl)-8-[(3-hydroxypropyl)amino]-3,7-dimethyl-2,3,6,7-tetrahydro-1H-purine-2,6-dione], the IC50 is reported as 0.01 to 1 µM.
With Cn1c(NC(CO)CO)nc2c1c(=O)n(Cc1ccc(Cl)c(Cl)c1)c(=O)n2C [Example 53, 1-[(3,4-dichlorophenyl)methyl]-8-[(1,3-dihydroxypropan-2-yl)amino]-3,7-dimethyl-2,3,6,7-tetrahydro-1H-purine-2,6-dione] the IC50 was 0.01 to 1 µM.
With Cn1c(NCCOCCO)nc2c1c(=O)n(Cc1ccc(Cl)c(Cl)c1)c(=O)n2C [Example 54, 1-[(3,4-dichlorophenyl)methyl]-8-{[2-(2-hydroxyethoxy)ethyl]amino}-3,7-dimethyl-2,3,6,7-tetrahydro-1H-purine-2,6-dione] the IC50 was 0.01 to 1 µM.
Work on Cn1c(NCCCO)nc2c1c(=O)n(Cc1ccc(C(F)(F)F)cc1)c(=O)n2C [Example 56, 8-[(3-hydroxypropyl)amino]-3,7-dimethyl-1-{[4-(trifluoromethyl)phenyl]methyl}-2,3,6,7-tetrahydro-1H-purine-2,6-dione] yielded an IC50 of 5 to 10 µM.
Work on C[C@@H](O)CNc1nc2c(c(=O)n(Cc3ccc(C(F)(F)F)cc3)c(=O)n2C)n1C [Example 57, 8-{[(2R)-2-hydroxypropyl]amino}-3,7-dimethyl-1-{[4-(trifluoromethyl)phenyl]methyl}-2,3,6,7-tetrahydro-1H-purine-2,6-dione] yielded an IC50 of 5 to 10 µM.
With Cn1c(NC2CCCCC2)nc2c1c(=O)n(Cc1ccc(Cl)c(Cl)c1)c(=O)n2C [Example 59, 8-(cyclohexylamino)-1-[(3,4-dichlorophenyl)methyl]-3,7-dimethyl-2,3,6,7-tetrahydro-1H-purine-2,6-dione] the IC50 was 1 to 5 µM.
With Cn1c(N[C@@H]2CCNC2)nc2c1c(=O)n(Cc1ccc(Cl)c(Cl)c1)c(=O)n2C [Example 60, 1-[(3,4-dichlorophenyl)methyl]-3,7-dimethyl-8-{[(3R)-pyrrolidin-3-yl]amino}-2,3,6,7-tetrahydro-1H-purine-2,6-dione] the IC50 was 1 to 5 µM.
In the case of Cn1c(N[C@H]2CCNC2)nc2c1c(=O)n(Cc1ccc(Cl)c(Cl)c1)c(=O)n2C [Example 61, 1-[(3,4-dichlorophenyl)methyl]-3,7-dimethyl-8-{[(3S)-pyrrolidin-3-yl]amino}-2,3,6,7-tetrahydro-1H-purine-2,6-dione], the IC50 is reported as 1 to 5 µM.
Cn1c(NCCCO)nc2c1c(=O)n(-c1ccc(Cl)c(Cl)c1)c(=O)n2C [Example 62, 1-(3,4-dichlorophenyl)-8-[(3-hydroxypropyl)amino]-3,7-dimethyl-2,3,6,7-tetrahydro-1H-purine-2,6-dione] was tested, and the IC50 was > 10 µM.
With Cn1c(N[C@@H]2CCOC2)nc2c1c(=O)n(Cc1ccc(Cl)c(Cl)c1)c(=O)n2C [Example 63, 1-[(3,4-dichlorophenyl)methyl]-3,7-dimethyl-8-{[(3R)-oxolan-3-yl]amino}-2,3,6,7-tetrahydro-1H-purine-2,6-dione] the IC50 was 0.01 to 1 µM.
Compound Cn1c(N[C@H]2CC[C@@H](C(=O)O)C2)nc2c1c(=O)n(Cc1ccc(Cl)c(Cl)c1)c(=O)n2C [Example 64, (1R,3S)-3-(1-(3,4-dichlorobenzyl)-3,7-dimethyl-2,6-dioxo-2,3,6,7-tetrahydro-1H-purin-8-ylamino)cyclopentanecarboxylic acid] has an IC50 of 0.01 to 1 µM.
Cn1c(NC2CNC2)nc2c1c(=O)n(Cc1ccc(Cl)c(Cl)c1)c(=O)n2C [Example 65, 8-[(azetidin-3-yl)amino]-1-[(3,4-dichlorophenyl)methyl]-3,7-dimethyl-2,3,6,7-tetrahydro-1H-purine-2,6-dione] gave an IC50 of 1 to 5 µM.
Work on Cn1c(N[C@H]2C[C@@H](O)C2)nc2c1c(=O)n(Cc1ccc(Cl)c(Cl)c1)c(=O)n2C [Example 66, 1-[(3,4-dichlorophenyl)methyl]-3,7-dimethyl-8-{[(cis)-3-hydroxycyclobutyl]amino}-2,3,6,7-tetrahydro-1H-purine-2,6-dione] yielded an IC50 of 0.01 to 1 µM.
Cn1c(NCCCO)nc2c1c(=O)n(Cc1ccc(Cl)c(C(F)(F)F)c1)c(=O)n2C [Example 67, 1-{[4-chloro-3-(trifluoromethyl)phenyl]methyl}-8-[(3-hydroxypropyl)amino]-3,7-dimethyl-2,3,6,7-tetrahydro-1H-purine-2,6-dione] showed an IC50 of 0.01 to 1 µM.
Cn1c(N[C@H]2CCCNC2)nc2c1c(=O)n(Cc1ccc(Cl)c(Cl)c1)c(=O)n2C [Example 68, 1-[(3,4-dichlorophenyl)methyl]-3,7-dimethyl-8-{[(3S)-piperidin-3-yl]amino}-2,3,6,7-tetrahydro-1H-purine-2,6-dione] was tested, and the IC50 was 1 to 5 µM.
Cn1c(N[C@@H]2CCCNC2)nc2c1c(=O)n(Cc1ccc(Cl)c(Cl)c1)c(=O)n2C [Example 69, 1-[(3,4-dichlorophenyl)methyl]-3,7-dimethyl-8-{[(3R)-piperidin-3-yl]amino}-2,3,6,7-tetrahydro-1H-purine-2,6-dione] gave an IC50 of 0.01 to 1 µM.
For CC(c1ccc(Cl)c(Cl)c1)n1c(=O)c2c(nc(NCCCO)n2C)n(C)c1=O (stereo not drawn) [Example 72, 1-[1-(3,4-dichlorophenyl)ethyl]-8-[(3-hydroxypropyl)amino]-3,7-dimethyl-2,3,6,7-tetrahydro-1H-purine-2,6-dione], the IC50 was > 10 µM.
Compound Cn1c(NCCCO)nc2c1c(=O)n(Cc1ccc(C(F)(F)F)c(Cl)c1)c(=O)n2C [Example 73, 1-{[3-chloro-4-(trifluoromethyl)phenyl]methyl}-8-[(3-hydroxypropyl)amino]-3,7-dimethyl-2,3,6,7-tetrahydro-1H-purine-2,6-dione] has an IC50 of 1 to 5 µM.
With Cn1c(N[C@@H]2CC[C@H](C(=O)O)C2)nc2c1c(=O)n(Cc1ccc(C(F)(F)F)cc1)c(=O)n2C [Example 77, (1S,3R)-3-[(3,7-dimethyl-2,6-dioxo-1-{[4-(trifluoromethyl)phenyl]methyl}-2,3,6,7-tetrahydro-1H-purin-8-yl)amino]cyclopentane-1-carboxylic acid] the IC50 was 1 to 5 µM.
Cn1c(NC2CCCC(N)C2)nc2c1c(=O)n(Cc1ccc(Cl)c(Cl)c1)c(=O)n2C (stereo not drawn) [Example 85, 8-((3-aminocyclohexyl)amino)-1-(3,4-dichlorobenzyl)-3,7-dimethyl-3,7-dihydro-1H-purine-2,6-dione] showed an IC50 of 1 to 5 µM.
Work on Cn1c(NC2CCNC2=O)nc2c1c(=O)n(Cc1ccc(Cl)c(Cl)c1)c(=O)n2C (stereo not drawn) [Example 86, 1-[(3,4-dichlorophenyl)methyl]-3,7-dimethyl-8-[(2-oxopyrrolidin-3-yl)amino]-2,3,6,7-tetrahydro-1H-purine-2,6-dione] yielded an IC50 of 0.01 to 1 µM.
For Cn1c(N[C@H]2CC[C@@H](C(=O)O)C2)nc2c1c(=O)n(Cc1ccc3sccc3c1)c(=O)n2C [Example 87, (1R,3S)-3-{[1-(1-benzothiophen-5-ylmethyl)-3,7-dimethyl-2,6-dioxo-2,3,6,7-tetrahydro-1H-purin-8-yl]amino}cyclopentane-1-carboxylic acid], the IC50 was 0.01 to 1 µM.

From US12187728B2 (Raze Therapeutics, Inc., priority 2015, dated 2025)
